Measured values published in patent US9073855B2, “BCL-2 selective apoptosis-inducing agents for the treatment of cancer and immune diseases” (AbbVie Inc., priority 2008, dated 2015).

Legend:
FL5.12/Bcl-2 cells = test: FL5.12/Bcl-2 cell viability assay under IL-3 withdrawal (CellTitre Glo); format: cell-based, murine; details: Mus musculus, IL-3 withdrawn 48 hrs, then 24 hrs with compound
In short: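 Murine IL-3-dependent FL5.12 cells stably overexpressing Bcl-2 were deprived of IL-3 (WEHI-3B conditioned medium omitted) for 48 hrs, then exposed to various compound concentrations for a further 24 hrs at 37° C, 5% CO2. Viability was read by CellTitre Glo luminescence.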

GST-Bcl-2 = GST-Bcl-2 (Homo sapiens, UniProt P10415); test: TR-FRET binding assay, GST-Bcl-2 with F-Bak peptide probe; details: TR-FRET Binding Affinity, GST-Bcl-2, F-Bak peptide probe
In short: (§1)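 Compounds were serially diluted in DMSO from a 50 μM starting solution (2× the starting concentration; 10% DMSO). Plates were incubated for 3 h at room temperature, and TR-FRET was read with 340/35 nm excitation and emission at 520/525 nm (F-Bak) and 495/510 nm (Tb antibody). Ki values were calculated using Wang's competitive-binding equation.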

GST-Bcl-XL = GST-Bcl-XL (Homo sapiens, UniProt Q07817); test: TR-FRET binding assay, GST-Bcl-XL with F-Bak peptide probe; details: TR-FRET Binding Affinity, GST-Bcl-XL, F-Bak peptide probe
In short: as §1

Chain of GST-Bcl-2 (P10415 whole entry): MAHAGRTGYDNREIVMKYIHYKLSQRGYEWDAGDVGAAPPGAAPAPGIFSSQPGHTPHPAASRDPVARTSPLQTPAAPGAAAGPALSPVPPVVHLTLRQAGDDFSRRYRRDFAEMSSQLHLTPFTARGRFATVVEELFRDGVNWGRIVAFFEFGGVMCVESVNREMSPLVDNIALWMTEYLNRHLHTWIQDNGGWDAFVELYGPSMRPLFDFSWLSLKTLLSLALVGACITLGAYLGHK
Chain of GST-Bcl-XL (Q07817 whole entry): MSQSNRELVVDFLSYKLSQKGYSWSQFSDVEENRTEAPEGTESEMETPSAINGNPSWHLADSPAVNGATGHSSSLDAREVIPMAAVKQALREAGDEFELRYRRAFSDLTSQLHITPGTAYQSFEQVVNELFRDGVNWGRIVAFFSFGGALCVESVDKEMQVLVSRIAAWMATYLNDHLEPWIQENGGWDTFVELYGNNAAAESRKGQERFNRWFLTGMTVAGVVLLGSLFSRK

Compound | EC50 (FL5.12/Bcl-2 cells) [nM] | Ki (GST-Bcl-2) [nM] | Ki (GST-Bcl-XL) [nM]
CNc1ccc(S(=O)(=O)NC(=O)c2ccc(N3CCN(CC4=C(c5ccc(Cl)cc5)CC(C)(C)CC4)CC3)cc2Oc2ccc3[nH]ccc3c2)cc1[N+](=O)[O-] [Example 245, 4-(4-{[2-(4-chlorophenyl)-4,4-dimethylcyclohex-1-en-1-yl]methyl}piperazin-1-yl)-2-(1H-indol-5-yloxy)-N-{[4-(methylamino)-3-nitrophenyl]sulfonyl}benzamide] | 72.4 | 1.62 | > 660
CC(C1=C(c2ccc(Cl)cc2)CC(C)(C)CC1)N1CCN(c2ccc(C(=O)NS(=O)(=O)c3ccc(NCCCN4CCOCC4)c([N+](=O)[O-])c3)c(Oc3ccc4[nH]ccc4c3)c2)CC1 (stereo not drawn) [Example 257, 4-(4-{1-[2-(4-chlorophenyl)-4,4-dimethylcyclohex-1-en-1-yl]ethyl}piperazin-1-yl)-2-(1H-indol-5-yloxy)-N-({4-[(3-morpholin-4-ylpropyl)amino]-3-nitrophenyl}sulfonyl)benzamide] | 9.34 | 0.171 | 17.1
CC1(C)CCC(CN2CCN(c3ccc(C(=O)NS(=O)(=O)c4ccc(OCC#CCN5CCOCC5)c([N+](=O)[O-])c4)c(Oc4ccc5[nH]ccc5c4)c3)CC2)=C(c2ccc(Cl)cc2)C1 [Example 390, 4-(4-{[2-(4-chlorophenyl)-4,4-dimethylcyclohex-1-en-1-yl]methyl}piperazin-1-yl)-2-(1H-indol-5-yloxy)-N-({4-[(4-morpholin-4-ylbut-2-ynyl)oxy]-3-nitrophenyl}sulfonyl)benzamide] | 41.2 | 0.341 | 116
CNc1ccc(S(=O)(=O)NC(=O)c2ccc(N3CCN(CC4=C(c5ccc(Cl)cc5)CC(C)(C)CC4)CC3)cc2Oc2cccc3[nH]ccc23)cc1[N+](=O)[O-] [Example 246, 4-(4-{[2-(4-chlorophenyl)-4,4-dimethylcyclohex-1-en-1-yl]methyl}piperazin-1-yl)-2-(1H-indol-4-yloxy)-N-{[4-(methylamino)-3-nitrophenyl]sulfonyl}benzamide] | 48 | 0.783 | 384
CN1CCC(Nc2ccc(S(=O)(=O)NC(=O)c3ccc(N4CCN(CC5=C(c6ccc(Cl)cc6)CCC(O)C5)CC4)cc3Oc3ccc4[nH]ccc4c3)cc2[N+](=O)[O-])CC1 (stereo not drawn) [Example 224, 4-(4-{[2-(4-chlorophenyl)-5-hydroxycyclohex-1-en-1-yl]methyl}piperazin-1-yl)-2-(1H-indol-5-yloxy)-N-({4-[(1-methylpiperidin-4-yl)amino]-3-nitrophenyl}sulfonyl)benzamide] | 21.2 | < 0.01 | 0.999
CC1(C)CCC(CN2CCN(c3ccc(C(=O)NS(=O)(=O)c4ccc(NCC5(N)CCOCC5)c([N+](=O)[O-])c4)c(Oc4ccc5[nH]ccc5c4)c3)CC2)=C(c2ccc(Cl)cc2)C1 [Example 188, N-[(4-{[(4-aminotetrahydro-2H-pyran-4-yl)methyl]amino}-3-nitrophenyl)sulfonyl]-4-(4-{[2-(4-chlorophenyl)-4,4-dimethylcyclohex-1-en-1-yl]methyl}piperazin-1-yl)-2-(1H-indol-5-yloxy)benzamide] | 24.7 | 0.102 | 115
CC1(C)CCC(CN2CCN(c3ccc(C(=O)NS(=O)(=O)c4ccc(NC5CCN(CCn6cccn6)CC5)c([N+](=O)[O-])c4)c(Oc4ccc5[nH]ccc5c4)c3)CC2)=C(c2ccc(Cl)cc2)C1 [Example 243, 4-(4-{[2-(4-chlorophenyl)-4,4-dimethylcyclohex-1-en-1-yl]methyl}piperazin-1-yl)-2-(1H-indol-5-yloxy)-N-{[3-nitro-4-({1-[2-(1H-pyrazol-1-yl)ethyl]piperidin-4-yl}amino)phenyl]sulfonyl}benzamide] | 28 | 0.28 | > 660
CN(C)CCOc1ccc(-c2ccc(Cl)cc2)c(CN2CCN(c3ccc(C(=O)NS(=O)(=O)c4ccc(NN5CCN(C)CC5)c([N+](=O)[O-])c4)c(Oc4cccc5[nH]ccc45)c3)CC2)c1 [Example 274, 4-[4-({4′-chloro-4-[2-(dimethylamino)ethoxy]-1,1′-biphenyl-2-yl}methyl)piperazin-1-yl]-2-(1H-indol-4-yloxy)-N-({4-[(4-methylpiperazin-1-yl)amino]-3-nitrophenyl}sulfonyl)benzamide] | 155 | 0.135 | 32.9
CC1(C)CCC(CN2CCN(c3ccc(C(=O)NS(=O)(=O)c4cnc(OCC5(F)CCOCC5)c(C#N)c4)c(Oc4ccc5[nH]ccc5c4)c3)CC2)=C(c2ccc(Cl)cc2)C1 [Example 385, 4-(4-{[2-(4-chlorophenyl)-4,4-dimethylcyclohex-1-en-1-yl]methyl}piperazin-1-yl)-N-({5-cyano-6-[(4-fluorotetrahydro-2H-pyran-4-yl)methoxy]pyridin-3-yl}sulfonyl)-2-(1H-indol-5-yloxy)benzamide] | 56.4 | 0.062 | 130
CC1(C)CCC(CN2CCN(c3ccc(C(=O)NS(=O)(=O)c4cnc(OCC5CCOCC5)c(Br)c4)c(Oc4cccc5[nH]ccc45)c3)CC2)=C(c2ccc(Cl)cc2)C1 [Example 364, N-{[5-bromo-6-(tetrahydro-2H-pyran-4-ylmethoxy)pyridin-3-yl]sulfonyl}-4-(4-{[2-(4-chlorophenyl)-4,4-dimethylcyclohex-1-en-1-yl]methyl}piperazin-1-yl)-2-(1H-indol-4-yloxy)benzamide] | 185 | 0.006 | 76
CN(C)CC#Cc1ccc(-c2ccc(Cl)cc2)c(CN2CCN(c3ccc(C(=O)NS(=O)(=O)c4ccc(NCC5CCOCC5)c([N+](=O)[O-])c4)c(Oc4cccc5[nH]ccc45)c3)CC2)c1 [Example 209, 4-[4-({4′-chloro-4-[3-(dimethylamino)prop-1-ynyl]-1,1′-biphenyl-2-yl}methyl)piperazin-1-yl]-2-(1H-indol-4-yloxy)-N-({3-nitro-4-[(tetrahydro-2H-pyran-4-ylmethyl)amino]phenyl}sulfonyl)benzamide] | 139 | 0.267 | > 660
CN1CCC(O)(CNc2ccc(S(=O)(=O)NC(=O)c3ccc(N4CCN(CC5=C(c6ccc(Cl)cc6)CC(C)(C)CC5)CC4)cc3Oc3ccc4[nH]ccc4c3)cc2[N+](=O)[O-])CC1 [Example 183, 4-(4-{[2-(4-chlorophenyl)-4,4-dimethylcyclohex-1-en-1-yl]methyl}piperazin-1-yl)-N-[(4-{[(4-hydroxy-1-methylpiperidin-4-yl)methyl]amino}-3-nitrophenyl)sulfonyl]-2-(1H-indol-5-yloxy)benzamide] | 30.8 | 0.039 | 9.43
CC1(C)CCC(CN2CCN(c3ccc(C(=O)NS(=O)(=O)c4ccc(OC[C@H]5COCCO5)c([N+](=O)[O-])c4)c(Oc4ccc5[nH]ccc5c4)c3)CC2)=C(c2ccc(Cl)cc2)C1 [Example 346, 4-(4-{[2-(4-chlorophenyl)-4,4-dimethylcyclohex-1-en-1-yl]methyl}piperazin-1-yl)-N-({4-[(2R)-1,4-dioxan-2-ylmethoxy]-3-nitrophenyl}sulfonyl)-2-(1H-indol-5-yloxy)benzamide] | 17.5 | 0.018 | 204
